From patent US20060235222A1, “Indole-derivative modulators of steroid hormone nuclear receptors” (ELI LILLY AND COMPANY, priority 2003, published 2006)

Tests used:
glucocorticoid receptor = target: T1, glucocorticoid receptor (Homo sapiens, UniProt P04150); experiment: Glucocorticoid Receptor Binding Assay (Method 1), [3H]-dexamethasone competition, A549 cell extract; settings: 1.86 nM [3H]-dexamethasone, read-out: GR Ki (nM) Method 1
T1 construct: containing 50-200 ug of A549 cell extract and 1.86 nM; host or cells: A549 human lung epithelial cells
T1 sequence (P04150 1-777): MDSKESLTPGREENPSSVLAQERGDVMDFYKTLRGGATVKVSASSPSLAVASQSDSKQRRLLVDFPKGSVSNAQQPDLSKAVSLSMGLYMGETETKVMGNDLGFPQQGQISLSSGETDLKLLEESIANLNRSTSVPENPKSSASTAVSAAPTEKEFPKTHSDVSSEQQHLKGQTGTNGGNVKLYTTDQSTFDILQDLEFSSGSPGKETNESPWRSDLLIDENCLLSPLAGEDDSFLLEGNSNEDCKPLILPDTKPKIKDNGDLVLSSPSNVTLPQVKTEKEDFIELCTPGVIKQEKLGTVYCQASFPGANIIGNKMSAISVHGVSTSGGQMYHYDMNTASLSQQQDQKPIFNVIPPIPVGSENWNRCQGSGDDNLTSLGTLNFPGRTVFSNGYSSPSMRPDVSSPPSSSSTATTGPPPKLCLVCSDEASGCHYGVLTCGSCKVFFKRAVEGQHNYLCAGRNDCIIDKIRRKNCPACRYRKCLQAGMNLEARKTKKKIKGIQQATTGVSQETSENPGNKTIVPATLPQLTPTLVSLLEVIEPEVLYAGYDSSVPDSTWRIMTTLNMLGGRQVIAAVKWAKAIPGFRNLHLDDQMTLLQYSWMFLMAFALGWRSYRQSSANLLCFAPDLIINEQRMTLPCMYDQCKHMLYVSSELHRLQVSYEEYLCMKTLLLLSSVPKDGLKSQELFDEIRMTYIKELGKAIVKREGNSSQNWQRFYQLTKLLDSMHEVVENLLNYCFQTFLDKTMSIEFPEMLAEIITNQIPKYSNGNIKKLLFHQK
Procedure: Glucocorticoid Receptor Binding Assay (Method 1):
A549 human lung epithelial cells (ATCC) are grown at a scale where gram quantity cell pellets are obtained. Harvested cell pellets are washed twice in cold phosphate buffered saline, centrifuged, and resuspended in cold assay binding buffer. The assay binding buffer consists of 10% glycerol, 50 mM Tris-HCl (pH7.2), 75 mM sodium chloride, 1.5 mM magnesium chloride, 1.5 mM EDTA, and 10 mM sodium molybdate. Cell suspensions were lysed via sonication, centrifuged, and the “extract” supernatant is snap frozen and stored at −80 C until needed.
Incubations are carried out at 4 degrees Celsius for 16 hours. After incubation, 70 ul of 3× dextran-coated charcoal solution is added to each reaction, mixed, and incubated for 8 minutes at RT. 3×-dextran-coated charcoal solution consists of 250 ml assay binding buffer, 3.75 g Norit A charcoal (Sigma), and 1.25 g dextran T-70 (Amersham). Charcoal/unbound radioligand complexes are removed by centrifugation of the plate and 140 ul of supernatant from each well is transferred to another 96 well Optiplate (Packard Instruments). 200 ul of Microscint-20 scinillant (Packard Instruments) is added to each well and amount of receptor bound radioligand is determined using Packard Instruments TopCount instrument.

human MR = target: T2, human MR (Homo sapiens, UniProt P08235); experiment: Mineralocorticoid Receptor Binding Assay (Method 1), [3H]-aldosterone competition; settings: 0.5 nM [3H]-aldosterone, human MR expressed in Sf9 cells
T2 construct: The full length human MR gene is cloned from a human kidney or human brain cDNA library; inferred from own knowledge of the pAcHLT vector (N); made in house; host or cells: Sf9 insect cells (baculovirus)
T2 sequence (P08235 1-984): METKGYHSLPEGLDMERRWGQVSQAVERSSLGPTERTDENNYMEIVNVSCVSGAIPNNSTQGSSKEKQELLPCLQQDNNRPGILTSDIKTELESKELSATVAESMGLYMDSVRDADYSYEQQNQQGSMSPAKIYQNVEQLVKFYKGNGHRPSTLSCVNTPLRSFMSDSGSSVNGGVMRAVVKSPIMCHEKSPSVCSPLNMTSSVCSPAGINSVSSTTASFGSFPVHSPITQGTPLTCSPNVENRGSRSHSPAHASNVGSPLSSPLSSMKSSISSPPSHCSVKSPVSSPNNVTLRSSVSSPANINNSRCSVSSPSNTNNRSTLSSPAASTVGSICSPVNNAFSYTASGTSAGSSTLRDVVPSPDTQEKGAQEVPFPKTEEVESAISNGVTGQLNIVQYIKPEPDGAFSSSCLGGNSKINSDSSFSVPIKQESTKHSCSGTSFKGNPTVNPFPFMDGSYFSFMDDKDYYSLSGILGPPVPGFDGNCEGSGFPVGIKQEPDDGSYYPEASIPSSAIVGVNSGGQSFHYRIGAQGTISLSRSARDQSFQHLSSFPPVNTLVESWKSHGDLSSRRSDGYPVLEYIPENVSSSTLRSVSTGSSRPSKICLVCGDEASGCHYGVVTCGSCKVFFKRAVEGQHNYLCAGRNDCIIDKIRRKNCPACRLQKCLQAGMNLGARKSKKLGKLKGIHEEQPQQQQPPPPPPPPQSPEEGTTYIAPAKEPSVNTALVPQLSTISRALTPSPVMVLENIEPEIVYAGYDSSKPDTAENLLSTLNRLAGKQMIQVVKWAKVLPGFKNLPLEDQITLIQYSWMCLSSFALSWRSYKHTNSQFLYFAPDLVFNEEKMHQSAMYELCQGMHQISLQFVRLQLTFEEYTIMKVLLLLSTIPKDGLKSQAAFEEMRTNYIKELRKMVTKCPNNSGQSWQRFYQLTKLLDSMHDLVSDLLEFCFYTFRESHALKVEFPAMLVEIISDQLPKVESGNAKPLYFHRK
Procedure: Mineralocorticoid Receptor Binding Assay (Method 1):
The full length human MR gene is cloned from a human kidney or human brain cDNA library. […] The PCR reaction is performed in a final volume of 50 μl containing about 1 μl of a 50× stock solution of polymerase; about 1 μl of a 50× stock solution of dNTP; about 5 μl of an appropriate PCR buffer; about 1 μl of each primer; about 5 μl of a H. kidney or H. brain cDNA library; and about 36 μl of water. The reaction is allowed to denature for about 30 seconds at 95 degrees Celsius, anneal for about 30 seconds at 55 degrees Celsius, and extend for about 5 minutes at 72 degrees Celsius, the sequence being repeated for a total of about 35 cycles. […] To extract the cDNA product from the agarose gel, the QIAEX II Gel Extraction protocol (QIAGEN, Inc.) is employed according to the manufacturer's instructions. Following extraction, the MR cDNA is cloned into an appropriate cloning vector (Zero Blunt TOPO PCR Cloning Kit (Invitrogen, Inc.) and a pAcHLT-baculovirus transfer vector (B.D./Pharminogen), then expressed in SF9 insect cells, essentially according to manufacturer's instructions. Sf9 cells are grown at a scale where gram quantity cell pellets are obtained for subsequent use in the MR binding assay. Harvested cell pellets are lysed by repeated freeze-thaw cycles (about 4) in a suitable lysis buffer then centrifuged at about 1×10^3 G (with the supernatant being saved for future assays).
MR binding assays are performed in a final total volume of about 250 μl containing about 20-25 μg of protein and 0.5 nM of [^3H]-aldosterone plus varying concentrations of test compound or vehicle. The assay binding buffer consists of 30 mM sodium molybdate, 30 mM of TRIS-HCl, 5 mM sodium phosphate, 5 mM sodium pyrophosphate, and about 10% glycerol, pH=7.5.
Incubations are carried out at 4 degrees Celsius with shaking for about 16 hours. 200 μl aliquots of each incubation are filtered onto Millipore HA 0.45 micron 96-well filter plates, pre-moistened with cold 30 mM TRIS-HCl. The filter plates are suctioned dry with vacuum and immediately washed 3× with cold 30 mM TRIS-HCl. The plates are then punched out and the amount of receptor-ligand complex is determined by liquid scintillation counting using 4 ml of Ready Protein Plus™ liquid scintillation cocktail.

SMILES	Ki (glucocorticoid receptor) [nM]	Ki (human MR) [nM]
CCC(CC)(c1cc2cc(Cl)ccc2o1)c1c[nH]c2c(NS(C)(=O)=O)cccc12 [Example 11, N-{3-[1-(5-Chloro-benzofuran-2-yl)-1-ethyl-propyl]-1H-indol-7-yl}-methanesulfonamide]	< 10000	< 500
CC(C)(c1cc2ccccc2s1)c1c[nH]c2c(NS(C)(=O)=O)cccc12 [Example 13, N-[3-(1-Benzo[b]thiophen-2-yl-1-methyl-ethyl)-1H-indol-7-yl]-methanesulfonamide]	< 1000	< 500
CS(=O)(=O)Nc1cccc2c(C3(c4ccccc4)CCCCC3)c[nH]c12 [Example 16, N-[3-(1-Phenylcyclohexyl)-1H-indol-7-yl]-methanesulfonamide]	< 1000	< 500
CCC(CC)(c1ccc(O)cc1)c1c[nH]c2c(NS(C)(=O)=O)cccc12 [Example 18, N-{3-[1-Ethyl-1-(4-hydroxy-phenyl)-propyl]-1H-indol-7-yl}-methanesulfonamide]	< 500	< 500
CCCC(C)(c1ccc(OC)cc1)c1c[nH]c2c(CC)cccc12 (centres unmarked) [Example 19, 7-Ethyl-3-[1-(4-methoxy-phenyl)-1-methyl-butyl]-1H-indole]	< 500	< 500
CCCC(C)(c1ccc(OC)cc1)c1c[nH]c2c(C)cccc12 (centres unmarked) [Example 20, 3-[1-(4-Methoxy-phenyl)-1-methyl-butyl]-7-methyl-1H-indole]	< 500	< 500
CS(=O)(=O)Nc1cccc2c(C3(c4ccccc4)CCCC3)c[nH]c12 [Example 21, N-[3-(1-Phenyl-cyclopentyl)-1H-indole-7-yl]-methanesulfonamide]	< 500	< 500
CC(C)(c1ccc2c(c1)CCO2)c1c[nH]c2c(NS(C)(=O)=O)cccc12 [Example 22, N-{3-[1-(2,3-Dihydro-benzofuran-5-yl)-1-methyl-ethyl]-1H-indol-7-yl}-methanesulfonamide]	< 500	< 500
CCCCC(C)(c1ccc(OC)cc1)c1c[nH]c2c(C)cccc12 (centres unmarked) [Example 23, 3-[1-(4-Methoxy-phenyl)-1-methyl-pentyl]-7-methyl-1H-indole]	< 500	< 500

Results, then the compound that gave them:

Ki (glucocorticoid receptor) [nM]	Ki (human MR) [nM]	SMILES
< 500	< 500	CC(c1ccc(F)cc1)(c1c[nH]c2c(NS(C)(=O)=O)cccc12)C1CC1 (centres unmarked) [Example 5, N-{3-[1-Cyclopropyl-1-(4-fluoro-phenyl)-ethyl]-1H-indol-7-yl}-methanesulfonamide]
< 500	< 500	CCC(CC)(c1cc2ccccc2s1)c1c[nH]c2c(NS(C)(=O)=O)cccc12 [Example 6, N-[3-(1-Benzo[b]thiophen-2-yl-1-ethyl-propyl)-1H-indol-7-yl]-methanesulfonamide]
< 500	< 500	CCCC(C)(c1ccc(F)cc1)c1c[nH]c2c(NS(C)(=O)=O)cccc12 (centres unmarked) [Example 7, N-{3-[1-(4-Fluoro-phenyl)-1-methyl-butyl]-1H-indol-7-yl}-methanesulfonamide]
< 500	< 500	CCC(CC)(c1ccc(SC)cc1)c1c[nH]c2c(NS(C)(=O)=O)cccc12 [Example 8, N-{3-[1-Ethyl-1-(4-methylsulfanyl-phenyl)-propyl]-1H-indol-7-yl}-methanesulfonamide]
< 500	< 500	CC(C)(c1cc2ccccc2o1)c1c[nH]c2c(NS(C)(=O)=O)cccc12 [Example 9, N-[3-(1-Benzofuran-2-yl-1-methyl-ethyl)-1H-indol-7-yl]-methanesulfonamide]
< 500	< 500	CCCC(C)(c1ccsc1)c1c[nH]c2c(NS(C)(=O)=O)cccc12 (centres unmarked) [Example 10, N-[3-(1-Methyl-1-thiophen-3-yl-butyl)-1H-indol-7-yl]-methanesulfonamide]
< 500	< 500	Cc1ccc(C(C)(C)c2c[nH]c3c(NS(C)(=O)=O)cccc23)cc1 [Example 12, N-[3-(1-Methyl-1-p-tolyl-ethyl)-1H-indol-7-yl]-methanesulfonamide]
< 500	< 500	CC(C)(c1csc2ccccc12)c1c[nH]c2c(NS(C)(=O)=O)cccc12 [Example 14, N-[3-(1-Benzo[b]thiophen-3-yl-1-methyl-ethyl)-1H-indol-7-yl]-methanesulfonamide]
< 500	< 500	CCC(CC)(c1cccs1)c1c[nH]c2c(NS(C)(=O)=O)cccc12 [Example 15, N-[3-(1-Ethyl-1-thiophen-2-yl-propyl)-1H-indol-7-yl]-methanesulfonamide]
< 500	< 500	CCC(CC)(c1ccc(OCc2ccccc2)cc1)c1c[nH]c2c(NS(C)(=O)=O)cccc12 [Example 17, N-{3-[1-(4-Benzyloxy-phenyl)-1-ethyl-propyl]-1H-indol-7-yl}-methanesulfonamide]
